This is an account of results in ChEMBL document CHEMBL5523720, “Identification of novel GSPT1 degraders by virtual screening and bioassay” (Eur J Med Chem, 2024).

In experiment [1] the test system is U-266. Briefly: Antiproliferative activity against human U-266 cells incubated for 48 hrs by MTS assay. It is filed as functional, cell-based. Conditions: U-266, 48 h. A general note: Tetrazolium dyes change colour on reduction, which living cells bring about.
For experiment [2], the system named is U-937. Briefly: Antiproliferative activity against human U-937 cells incubated for 48 hrs by MTS assay. The class given is functional, cell-based. Conditions: U-937, 48 h.
The test system of experiment [3] is K562. Briefly: Antiproliferative activity against human K562 cells incubated for 48 hrs by MTS assay. The conditions noted are these: K562, 48 h. The class given is functional, cell-based.
Experiment [4] has as its system OCI-AML2. Briefly: Antiproliferative activity against human OCI-AML2 cells incubated for 48 hrs by MTS assay. It is filed as functional, cell-based. Conditions: OCI-AML2, 48 h.
Experiment [5] has as its system U-937. Briefly: Downregulation of GSPT1 in human U-937 cells at high concentration incubated for 8 hrs by Western blotting analysis. The class given is functional, cell-based. In general terms: In western blotting, separated proteins are transferred to a membrane and probed.
Experiment [6] concerns OCI-AML2. Briefly: Induction of cell cycle arrest in human OCI-AML2 cells assessed as increase in G1 phase cells at 5 to 20 uM incubated for 24 hrs by propidium iodide staining based flow cytometry analysis. It is filed as functional. The conditions noted are these: dose 5-20 µM. In general terms: Flow cytometry measures light scatter and fluorescence of single cells or particles in a stream.

The subject of experiment [7] is OCI-AML2. Briefly: Downregulation of GSPT1 in human OCI-AML2 cells at high concentration incubated for 8 hrs by Western blotting analysis. It is filed as functional, cell-based.
The subject of experiment [8] is OCI-AML2. Briefly: Upregulation of PARP cleavage in human OCI-AML2 cells at 5 to 20 uM incubated for 24 hrs by Western blotting assay. It is filed as functional, cell-based. Conditions: dose 5-20 µM.
In experiment [9] the target is Eukaryotic peptide chain release factor GTP-binding subunit ERF3A (Homo sapiens) (UniProt P15170). Briefly: Induction of GSPT1 degradation in human U-937 cells at 20 to 40 uM pretreated with MG132 for 1 hr followed by compound addition and measured after 8 hrs by Western blotting analysis. The class given is cell-based. Conditions: dose 20-40 µM.
Eukaryotic peptide chain release factor GTP-binding subunit ERF3A (Homo sapiens), sequence (P15170 whole entry): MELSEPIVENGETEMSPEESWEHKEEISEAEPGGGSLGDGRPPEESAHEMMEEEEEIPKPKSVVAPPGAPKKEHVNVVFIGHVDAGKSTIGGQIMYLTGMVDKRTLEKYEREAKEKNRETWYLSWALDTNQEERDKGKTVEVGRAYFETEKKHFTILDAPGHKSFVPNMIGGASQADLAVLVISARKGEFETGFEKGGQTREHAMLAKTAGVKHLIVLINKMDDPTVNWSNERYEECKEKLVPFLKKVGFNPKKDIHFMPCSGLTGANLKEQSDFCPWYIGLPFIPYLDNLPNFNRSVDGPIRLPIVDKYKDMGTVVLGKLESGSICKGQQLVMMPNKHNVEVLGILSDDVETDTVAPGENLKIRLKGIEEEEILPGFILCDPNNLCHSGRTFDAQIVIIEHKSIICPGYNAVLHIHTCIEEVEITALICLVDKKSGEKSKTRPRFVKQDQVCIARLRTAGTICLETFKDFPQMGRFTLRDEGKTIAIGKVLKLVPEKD
Experiment [10] concerns OCI-AML2. Briefly: Induction of apoptosis in human OCI-AML2 cells assessed as increase in number of apoptotic cells at 5 to 20 uM incubated for 48 hrs by Annexin V-FITC/PI staining based flow cytometry analysis. It is filed as functional, cell-based. Conditions: dose 5-20 µM.
The subject of experiment [11] is U-937. Briefly: Induction of cell cycle arrest in human U-937 cells assessed as decrease in M phase cells at 5 to 20 uM incubated for 24 hrs by propidium iodide staining based flow cytometry analysis. Conditions: dose 5-20 µM. The class given is functional.
Experiment [12] concerns the target Eukaryotic peptide chain release factor GTP-binding subunit ERF3A (Homo sapiens) (UniProt P15170). Briefly: Induction of GSPT1 degradation in human U-937 cells at 20 to 40 uM pretreated with MLN4924 followed by compound addition and measured after 8 hrs by Western blotting analysis. Conditions: dose 20-40 µM. The class given is cell-based.
The test system of experiment [13] is OCI-AML2. Briefly: Downregulation of c-Myc level in human OCI-AML2 cells at 5 to 20 uM incubated for 24 hrs by Western blotting assay. The class given is functional, cell-based. Conditions: dose 5-20 µM.
Experiment [14] concerns OCI-AML2. Briefly: Upregulation of p21 level in human OCI-AML2 cells at 5 to 20 uM incubated for 24 hrs by Western blotting assay. The class given is functional, cell-based. Conditions: dose 5-20 µM.
The test system of experiment [15] is U-937. Briefly: Upregulation of p21 level in human U-937 cells at 5 to 20 uM incubated for 24 hrs by Western blotting assay. The class given is functional, cell-based. The conditions noted are these: dose 5-20 µM.
For experiment [16], the system named is OCI-AML2. Briefly: Induction of cell cycle arrest in human OCI-AML2 cells assessed as decrease in M phase cells at 5 to 20 uM incubated for 24 hrs by propidium iodide staining based flow cytometry analysis. It is filed as functional. The conditions noted are these: dose 5-20 µM.
Experiment [17] relates to U-937. Briefly: Upregulation of caspase 9 level in human U-937 cells at 5 to 20 uM incubated for 24 hrs by Western blotting assay. It is filed as functional, cell-based. Conditions: dose 5-20 µM.
Experiment [18] addresses T1, Protein cereblon/Eukaryotic peptide chain release factor GTP-binding subunit ERF3A (Homo sapiens) (UniProt Q96SW2+P15170). Briefly: Binding affinity to CRBN/GSPT1 in human U-937 cells assessed as increase in protein stabilization incubated for 6 hrs by CETSA. The conditions noted are these: filed as activator. It is filed as cell-based.
For experiment [19], the target named is Protein cereblon (Homo sapiens) (UniProt Q96SW2). Briefly: Binding affinity to recombinant CRBN (unknown origin) by SPR assay.
Protein cereblon (Homo sapiens), sequence (Q96SW2 whole entry): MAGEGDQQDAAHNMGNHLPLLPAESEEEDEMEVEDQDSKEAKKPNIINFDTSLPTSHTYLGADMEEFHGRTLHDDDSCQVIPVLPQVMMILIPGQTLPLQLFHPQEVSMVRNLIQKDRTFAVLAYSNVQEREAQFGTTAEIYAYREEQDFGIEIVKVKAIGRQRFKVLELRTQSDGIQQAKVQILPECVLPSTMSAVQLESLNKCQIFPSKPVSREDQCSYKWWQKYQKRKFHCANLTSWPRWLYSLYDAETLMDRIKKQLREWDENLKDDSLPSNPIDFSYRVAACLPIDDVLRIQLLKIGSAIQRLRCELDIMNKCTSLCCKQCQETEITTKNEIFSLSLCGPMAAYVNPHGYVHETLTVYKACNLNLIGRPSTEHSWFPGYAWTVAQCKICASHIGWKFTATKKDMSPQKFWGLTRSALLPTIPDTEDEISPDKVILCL
The test system of experiment [20] is OCI-AML2. Briefly: Downregulation of IKZF1 in human OCI-AML2 cells at high concentration incubated for 8 hrs by Western blotting analysis. The class given is functional, cell-based.
Experiment [21] concerns the target Eukaryotic peptide chain release factor GTP-binding subunit ERF3A (Homo sapiens) (UniProt P15170). Briefly: Induction of GSPT1 degradation in human HEK293FT cells at 20 to 40 uM pretreated with MLN4924 for 1 hr followed by compound addition and measured after 8 hrs by Western blotting analysis. The class given is cell-based. The conditions noted are these: dose 20-40 µM.

For experiment [22], the system named is U-937. Briefly: Antiproliferative activity against CRBN knockdown human U-937 cells incubated for 48 hrs by MTS assay. It is filed as functional, cell-based.
Experiment [23] relates to U-937. Briefly: Downregulation of IKZF1 in human U-937 cells at high concentration incubated for 8 hrs by Western blotting analysis. It is filed as functional, cell-based.
For experiment [24], the system named is U-937. Briefly: Induction of apoptosis in human U-937 cells assessed as increase in number of apoptotic cells at 5 to 20 uM incubated for 48 hrs by Annexin V-FITC/PI staining based flow cytometry analysis. It is filed as functional, cell-based. Conditions: dose 5-20 µM.
The test system of experiment [25] is U-937. Briefly: Downregulation of c-Myc level in human U-937 cells at 5 to 20 uM incubated for 24 hrs by Western blotting assay. The class given is functional, cell-based. Conditions: dose 5-20 µM.
For experiment [26], the system named is U-937. Briefly: Upregulation of PARP cleavage in human U-937 cells at 5 to 20 uM incubated for 24 hrs by Western blotting assay. Conditions: dose 5-20 µM. It is filed as functional, cell-based.
The target of experiment [27] is T1, Protein cereblon/Eukaryotic peptide chain release factor GTP-binding subunit ERF3A (Homo sapiens). Briefly: Induction of CRBN to GSPT1 protein-protein interaction in human U-937 cells at 20 uM pretreated with MG132 for 1 hr followed by compound addition and measured after 8 hrs by immunoprecipitation assay. The class given is cell-based. Conditions: filed as activator.

Experiment [28] concerns U-937. Briefly: Induction of cell cycle arrest in human U-937 cells assessed as increase in G1 phase cells at 5 to 20 uM incubated for 24 hrs by propidium iodide staining based flow cytometry analysis. The class given is functional. Conditions: dose 5-20 µM.
Experiment [29] has as its target Eukaryotic peptide chain release factor GTP-binding subunit ERF3A (Homo sapiens) (UniProt P15170). Briefly: Induction of GSPT1 degradation in human OCI-AML2 cells at 20 to 40 uM pretreated with MLN4924 followed by compound addition and measured after 8 hrs by Western blotting analysis. It is filed as cell-based. Conditions: dose 20-40 µM.
Experiment [30] has the same target. Briefly: Induction of GSPT1 degradation in human U-937 cells with CHX pretreatment by Western blotting analysis. It is filed as cell-based. The conditions noted are these: dose 20-40 µM.
Experiment [31] concerns OCI-AML2. Briefly: Antiproliferative activity against GSPT1 knockout human OCI-AML2 cells incubated for 48 hrs by MTS assay. It is filed as functional, cell-based.
Experiment [32] deals with OCI-AML2. Briefly: Upregulation of caspase 9 level in human OCI-AML2 cells at 5 to 20 uM incubated for 24 hrs by Western blotting assay. It is filed as functional, cell-based. The conditions noted are these: dose 5-20 µM.
In experiment [33] the test system is OCI-AML2. Briefly: Downregulation of CK1alpha in human OCI-AML2 cells at high concentration incubated for 8 hrs by Western blotting analysis. The class given is functional, cell-based.
Experiment [34] concerns U-937. Briefly: Downregulation of CK1alpha in human U-937 cells at high concentration incubated for 8 hrs by Western blotting analysis. The class given is functional, cell-based.
Experiment [35] deals with T1, Protein cereblon/Eukaryotic peptide chain release factor GTP-binding subunit ERF3A (Homo sapiens). Briefly: Induction of CRBN to GSPT1 protein-protein interaction in human U-937 cells at 1 uM pretreated with MG132 for 1 hr followed by compound addition and measured after 8 hrs by immunoprecipitation assay. It is filed as cell-based. The conditions noted are these: filed as activator.

The target of experiment [36] is Eukaryotic peptide chain release factor GTP-binding subunit ERF3A (Homo sapiens) (UniProt P15170). Briefly: Induction of GSPT1 degradation in human U-937 cells at 1 uM incubated for 8 hrs by Western blotting analysis. It is filed as cell-based.
For experiment [37] the target is unchanged. Briefly: Induction of GSPT1 degradation in human OCI-AML2 cells at 1 uM incubated for 8 hrs by Western blotting analysis. The class given is cell-based.

Calls of active or inactive are those of the source. No cut-off for these calls is given here. Bounds are passed on as bounds.

T1 sequence (P15170 whole entry, looked up): as the sequence (P15170 whole entry) above
T1 sequence (Q96SW2 whole entry, looked up): as the sequence (Q96SW2 whole entry) above

`Cc1nc2c(C)cccc2cc1C(=O)N/N=C/c1c(C)[nH]c2ccccc12`: the IC50 was 17.4 µM in experiment [1], 20 µM in experiment [2], 11.1 µM in experiment [3] and 10.4 µM in [4].
In the case of `Cc1nc2c(C)cccc2cc1C(=O)N/N=C/c1ccccc1O`, the result in experiment [5], in experiment [6], in experiment [7], in experiment [8], in [10] and in experiment [11] was Active. Besides, the outcome in experiment [13], in experiment [14], in experiment [15], in experiment [16], in experiment [17] and in experiment [18] was Active. The outcome in experiment [19], in experiment [20], in experiment [23], in experiment [24], in [25] and in [26] was Active. The outcome in experiment [27], in [28], in experiment [32], in experiment [33] and in experiment [34] was Active. The result in experiment [9], in experiment [12], in [21], in experiment [22], in experiment [29] and in [31] was inactive. For the same compound, the IC50 in [1] came to 3.8 µM; in [2] it was 4.49 µM; in experiment [3] it was 16.7 µM; in experiment [4], 2.64 µM. Further, the Activity entry in experiment [30] was “Dose-Dependent Effect”.
As to `Cc1ccc2nc(C)c(C(=O)N/N=C/c3cccc(O)c3)cc2c1`, the 50% inhibitory concentration (IC50) in experiment [1], in experiment [2], in [3] and in [4] was more than 40 µM each time.
For `Cc1nc2ccccc2cc1C(=O)N/N=C/c1cccc([N+](=O)[O-])c1`, the IC50 in experiment [1], in experiment [2], in experiment [3] and in experiment [4] was more than 40 µM in each case.
Consider `Cc1nc2ccccc2cc1C(=O)N/N=C/c1ccccc1O`, for which the IC50 was 6.75 µM in experiment [1], 6.53 µM in experiment [2], more than 40 µM in experiment [3] and 8.98 µM in experiment [4].
For `O=C1CCC(N2Cc3cc(CNC(=O)C(F)(F)c4ccc(Cl)cc4)ccc3C2=O)C(=O)N1` (centres undefined), the IC50 in experiment [1] was 0.04 µM; in [2], less than 0.032 µM; in [3], more than 40 µM; in [4], 0.01 µM. For the same compound, the result in [35], in [36] and in [37] was Active.
Consider `Cc1ccc2nc(C)c(C(=O)N/N=C/c3cccc([N+](=O)[O-])c3)cc2c1`, for which the IC50 in [1], in experiment [2], in [3] and in experiment [4] was more than 40 µM in each case.
Consider `Cc1nc2c(C)cccc2cc1C(=O)N/N=C/c1cccc([N+](=O)[O-])c1`, for which the IC50 in [1] stood at 7.13 µM; in [2], 9.9 µM; in [3], 12.8 µM; in experiment [4], 2.68 µM.
As for `Cc1nc2c(C)cccc2cc1C(=O)N/N=C/c1cccc(Cl)c1`, the half-maximal inhibitory concentration (IC50) turned out to be 3.1 µM in [1], 4.31 µM in experiment [2], 9.92 µM in experiment [3] and 2.49 µM in [4].

One may read the IC50 as the concentration at which inhibition is half-maximal. Low readings indicate inhibition by little substance, high ones a need for much substance.
